For 27 molecules, Ki results are on record in patent US20050209278A1, “Piperidinyl- and piperazinyl-sulfonylmethyl hydroxamic acids and their use as protease inhibitors” (priority 2002, published 2005).

Type in all cases: biochemical
The target in one test is T1, MMP-13 (Homo sapiens, UniProt P45452).
T1 construct: made in house; host or cells: baculovirus / insect cells
Put plainly: MMP-13 inhibition (in vitro Ki). The following applies: Table 9; read-out: MMP-13 Ki (IC-50).

For the next test, the target named is T2, MMP-1 (Homo sapiens, UniProt P03956).
T2 construct: made in house; host or cells: MMP-1-transfected HT-1080 cells (spent media)
T2 sequence (P03956 100-469): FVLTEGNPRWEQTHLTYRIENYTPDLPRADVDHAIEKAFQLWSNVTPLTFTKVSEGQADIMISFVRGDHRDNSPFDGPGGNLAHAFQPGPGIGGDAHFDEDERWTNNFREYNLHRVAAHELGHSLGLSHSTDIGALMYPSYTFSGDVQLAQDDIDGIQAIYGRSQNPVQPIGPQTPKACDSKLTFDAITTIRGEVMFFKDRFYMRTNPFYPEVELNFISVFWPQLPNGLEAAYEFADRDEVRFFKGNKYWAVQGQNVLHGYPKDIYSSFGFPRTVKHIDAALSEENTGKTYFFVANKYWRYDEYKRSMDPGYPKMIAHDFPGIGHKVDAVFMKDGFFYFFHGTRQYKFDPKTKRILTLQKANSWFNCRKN
Briefly: MMP-1 inhibition (in vitro Ki). As to conditions: Table 9; read-out: MMP-1 Ki (IC-50).

The next test deals with T3, MMP-9 (Homo sapiens, UniProt P14780).
T3 construct: made in house; host or cells: MMP-9-transfected HT1080 cells (spent media)
T3 sequence (P14780 107-707 limits assumed): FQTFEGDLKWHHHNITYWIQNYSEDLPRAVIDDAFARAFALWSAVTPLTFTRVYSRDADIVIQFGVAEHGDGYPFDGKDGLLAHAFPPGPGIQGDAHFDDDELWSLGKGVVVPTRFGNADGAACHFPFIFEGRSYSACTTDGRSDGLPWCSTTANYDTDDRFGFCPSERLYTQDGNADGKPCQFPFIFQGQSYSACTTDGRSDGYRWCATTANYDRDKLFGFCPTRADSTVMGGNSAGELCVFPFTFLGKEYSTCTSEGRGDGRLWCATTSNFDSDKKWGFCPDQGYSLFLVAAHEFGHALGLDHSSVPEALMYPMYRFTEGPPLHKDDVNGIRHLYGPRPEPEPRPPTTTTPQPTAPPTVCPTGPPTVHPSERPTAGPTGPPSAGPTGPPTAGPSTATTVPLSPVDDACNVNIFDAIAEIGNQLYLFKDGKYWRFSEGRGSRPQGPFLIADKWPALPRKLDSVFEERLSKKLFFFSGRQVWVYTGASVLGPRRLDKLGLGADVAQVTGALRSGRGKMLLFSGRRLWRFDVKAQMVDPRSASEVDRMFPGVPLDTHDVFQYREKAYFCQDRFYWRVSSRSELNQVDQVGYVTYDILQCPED
Briefly: MMP-9 inhibition (in vitro Ki). As to conditions: Table 9; read-out: MMP-9 Ki (IC-50).

The target in another test is T4, MMP-14 (Homo sapiens, UniProt P50281).
T4 construct: The catalytic domain enzyme was expressed in E. coli inclusion bodies, solubilized in urea; made in house
Briefly: MMP-14 inhibition (in vitro Ki). As to conditions: Table 9; read-out: MMP-14 Ki (IC-50).

The target in the next test is T5, MMP-2 (Homo sapiens, UniProt P08253).
T5 construct: made in house; host or cells: MMP-2-transfected p2AHT2 cells
T5 sequence (P08253 110-660): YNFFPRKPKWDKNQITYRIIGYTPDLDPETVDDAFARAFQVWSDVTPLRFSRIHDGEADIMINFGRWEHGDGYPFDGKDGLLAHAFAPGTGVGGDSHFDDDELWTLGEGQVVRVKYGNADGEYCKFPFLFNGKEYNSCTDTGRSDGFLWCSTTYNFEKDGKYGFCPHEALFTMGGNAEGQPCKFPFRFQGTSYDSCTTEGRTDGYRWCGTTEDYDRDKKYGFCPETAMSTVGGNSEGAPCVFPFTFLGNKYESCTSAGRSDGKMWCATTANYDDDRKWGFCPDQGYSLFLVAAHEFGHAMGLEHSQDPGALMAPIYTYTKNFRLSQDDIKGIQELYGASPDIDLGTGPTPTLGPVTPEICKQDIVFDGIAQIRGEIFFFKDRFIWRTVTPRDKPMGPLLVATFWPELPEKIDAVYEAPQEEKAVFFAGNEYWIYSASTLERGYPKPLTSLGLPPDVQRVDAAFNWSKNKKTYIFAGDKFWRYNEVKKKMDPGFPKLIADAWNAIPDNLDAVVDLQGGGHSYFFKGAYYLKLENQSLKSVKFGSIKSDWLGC
Put plainly: MMP-2 inhibition (in vitro Ki). The following applies: Table 9; read-out: MMP-2 Ki (IC-50).

Structures are written as SMILES.

Consider `O=C(CCCCN1CCN(S(=O)(=O)C2(C(=O)NO)CCOCC2)CC1)N1CCCCC1` [Example A119], for which the Ki at MMP-13 was 154 nM; on MMP-1, more than 10000 nM; on MMP-9, more than 10000 nM; at MMP-14, more than 10000 nM; on MMP-2 it was more than 10000 nM.

`O=C(NO)C1(S(=O)(=O)N2CCC(c3ccc(CCC4CCC4)cn3)CC2)CCOCC1` [Example A120]: the Ki stood at 0.15 nM at MMP-13; 4910 nM on MMP-1; 0.16 nM at MMP-9; 1280 nM on MMP-14; 0.42 nM at MMP-2.

In the case of `CC(C)(C(=O)NO)S(=O)(=O)N1CCC(c2ccc(CCC(F)(F)C(F)(F)F)cn2)CC1` [Example A122], the Ki on MMP-13 turned out to be 0.12 nM; on MMP-1, 3100 nM; at MMP-9 it was 0.27 nM; on MMP-14 it was 2600 nM; on MMP-2 it was 0.37 nM.

Regarding `O=C(NO)C1(S(=O)(=O)N2CCC(c3ccc(CCC4CC4)cn3)CC2)CCOCC1` [Example A123], the Ki at MMP-13 came out at 0.43 nM; at MMP-1, 5160 nM; on MMP-9, 0.08 nM; on MMP-14, 1280 nM; at MMP-2, 0.58 nM.

`CCC(CC)(C(=O)NO)S(=O)(=O)N1CCC(c2ccc(OCC3CC3)cn2)CC1` [Example A124]: the Ki was found to be 3.11 nM at MMP-13; 3040 nM on MMP-1; 0.59 nM at MMP-9; 7290 nM at MMP-14; 3.42 nM at MMP-2.

`CN(C(=O)CCCCN1CCN(S(=O)(=O)C2(C(=O)NO)CCOCC2)CC1)C1CCCCC1` [Example A125]: the Ki was 106 nM on MMP-13; more than 10000 nM at MMP-1; more than 10000 nM at MMP-9; more than 10000 nM at MMP-14; more than 10000 nM on MMP-2.

Take `O=C(NO)C1(S(=O)(=O)N2CCC(c3ccc(CCC(F)(F)C(F)(F)F)cn3)CC2)CCC1` [Example A126]: the inhibition constant (Ki) turned out to be 0.06 nM at MMP-13; 2750 nM on MMP-1; 0.14 nM on MMP-9; 1300 nM on MMP-14; 0.27 nM at MMP-2.

For `O=C(NO)C1(S(=O)(=O)N2CCC(c3ccc(C(F)(F)CCC(F)(F)F)cn3)CC2)CCOCC1` [Example A128], the Ki on MMP-13 was 0.84 nM; on MMP-1, 5190 nM; on MMP-9, 8.82 nM; on MMP-14 it was more than 10000 nM; on MMP-2 it was 3.33 nM.

Regarding `CCC(F)(F)c1ccc(C2CCN(S(=O)(=O)C3(C(=O)NO)CCOCC3)CC2)nc1` [Example A129], the Ki was 2.81 nM on MMP-13; 650 nM at MMP-1; 10.8 nM at MMP-9; 4540 nM at MMP-14; 2.96 nM on MMP-2.

Consider `CN(C(=O)CCCN1CCN(S(=O)(=O)C2(C(=O)NO)CCOCC2)CC1)C1CCCCC1` [Example A130], for which the Ki at MMP-13 was 2910 nM; on MMP-1 it was more than 10000 nM; at MMP-9, more than 10000 nM; at MMP-14, more than 10000 nM; at MMP-2, more than 10000 nM.

Turning to `Cc1ccc(N2CCC(C(=O)NO)(S(=O)(=O)N3CCC(c4ccc(CCC(F)(F)C(F)(F)F)cn4)CC3)CC2)cn1` [Example A131], the inhibition constant (Ki) at MMP-13 was 0.34 nM; on MMP-1, more than 10000 nM; on MMP-9 it was 0.57 nM; on MMP-14 it was 1910 nM; at MMP-2, 1.2 nM.

Consider `CC(C)COc1cnc(C2CCN(S(=O)(=O)C3(C(=O)NO)CCOCC3)CC2)cn1` [Example A132], for which the inhibition constant (Ki) turned out to be 1.48 nM at MMP-13; 7170 nM on MMP-1; 0.45 nM at MMP-9; 5290 nM on MMP-14; 2.29 nM at MMP-2.

For `O=C(NO)C1(S(=O)(=O)N2CCC(c3ccc(C#CCCO)cn3)CC2)CCOCC1` [Example A133], the Ki was 1.12 nM on MMP-13; 1900 nM at MMP-1; 1.07 nM on MMP-9; 3870 nM at MMP-14; 0.77 nM on MMP-2.

Regarding `O=C(NO)C1(S(=O)(=O)N2CCC(c3ccc(C#CCc4ccccc4)cn3)CC2)CCOCC1` [Example A134], the Ki at MMP-13 came to 0.109 nM; at MMP-1 it was 1250 nM; at MMP-9 it was 1.25 nM; on MMP-14, 191 nM; on MMP-2, 0.65 nM.

As for `CC(=O)OCCCC#Cc1ccc(C2CCN(S(=O)(=O)C3(C(=O)NO)CCOCC3)CC2)nc1` [Example A135], the Ki was 0.28 nM at MMP-13; 2620 nM on MMP-1; 0.48 nM at MMP-9; 609 nM at MMP-14; 0.31 nM at MMP-2.

In the case of `COC(=O)CCCC#Cc1ccc(C2CCN(S(=O)(=O)C3(C(=O)NO)CCOCC3)CC2)nc1` [Example A136], the Ki at MMP-13 was determined as 0.48 nM; on MMP-1 it was 4300 nM; on MMP-9 it was 2.03 nM; at MMP-14, 1150 nM; on MMP-2, 0.33 nM.

Consider `CCCCC#Cc1ccc(C2CCN(S(=O)(=O)C3(C(=O)NO)CCOCC3)CC2)nc1` [Example A137], for which the Ki on MMP-13 was determined as 0.09 nM; at MMP-1 it was 1260 nM; on MMP-9, 0.32 nM; on MMP-14, 221 nM; at MMP-2, 0.37 nM.

Consider `CC(C)CC#Cc1ccc(C2CCN(S(=O)(=O)C3(C(=O)NO)CCOCC3)CC2)nc1` [Example A138], for which the Ki at MMP-13 turned out to be 0.14 nM; at MMP-1, 3440 nM; on MMP-9 it was 0.24 nM; at MMP-14, 763 nM; at MMP-2 it was 0.68 nM.

Regarding `CCCC#Cc1ccc(C2CCN(S(=O)(=O)C3(C(=O)NO)CCOCC3)CC2)nc1` [Example A139], the Ki at MMP-13 is 0.17 nM; on MMP-1, 2340 nM; on MMP-9 it was 0.15 nM; at MMP-14, 401 nM; at MMP-2 it was 0.5 nM.

As to `O=C(CCCCN1CCN(S(=O)(=O)C2(C(=O)NO)CCOCC2)CC1)c1cccc(OC(F)(F)F)c1` [Example A140], the Ki is 12.5 nM at MMP-13; more than 10000 nM on MMP-1; 814 nM at MMP-9; more than 10000 nM at MMP-14; 390 nM at MMP-2.

Regarding `CN(Cc1ccco1)C(=O)CCCC1CCN(S(=O)(=O)C2(C(=O)NO)CCOCC2)CC1` [Example A141], the Ki at MMP-13 is 3.4 nM; at MMP-1 it was 6900 nM; at MMP-9, 348 nM; on MMP-14, more than 10000 nM; at MMP-2, 219 nM.

As for `Cc1ccc(N(C)C(=O)CCCC2CCN(S(=O)(=O)C3(C(=O)NO)CCOCC3)CC2)cc1` [Example A142], the Ki was 66.4 nM at MMP-13; more than 10000 nM at MMP-1; 184 nM at MMP-9; more than 10000 nM on MMP-14; 358 nM at MMP-2.

Regarding `CN(C(=O)CCCC1CCN(S(=O)(=O)C2(C(=O)NO)CCOCC2)CC1)c1ccccc1` [Example A143], the Ki at MMP-13 was 50.8 nM; on MMP-1, more than 10000 nM; on MMP-9 it was 389 nM; on MMP-14, more than 10000 nM; at MMP-2, 686 nM.

`CN(C(=O)CCCC1CCN(S(=O)(=O)C2(C(=O)NO)CCOCC2)CC1)C1CCCCC1` [Example A144]: the Ki on MMP-13 is 22.2 nM; at MMP-1, more than 10000 nM; at MMP-9, 1520 nM; at MMP-14 it was more than 10000 nM; at MMP-2, 958 nM.

With `CCCN(C(=O)CCCC1CCN(S(=O)(=O)C2(C(=O)NO)CCOCC2)CC1)c1ccccc1` [Example A145], the Ki is 23 nM on MMP-13; more than 10000 nM at MMP-1; 15.2 nM on MMP-9; 6520 nM on MMP-14; 26.3 nM at MMP-2.

Turning to `CN(C(=O)CCCC1CCN(S(=O)(=O)C2(C(=O)NO)CCOCC2)CC1)c1ccc(F)cc1` [Example A146], the Ki at MMP-13 was 31.8 nM; on MMP-1 it was more than 10000 nM; on MMP-9, 262 nM; at MMP-14, more than 10000 nM; at MMP-2, 344 nM.

As to `CCN(C(=O)CCCC1CCN(S(=O)(=O)C2(C(=O)NO)CCOCC2)CC1)c1ccccc1` [Example A147], the Ki is 44.8 nM on MMP-13; more than 10000 nM on MMP-1; 42.9 nM on MMP-9; more than 10000 nM at MMP-14; 76.1 nM at MMP-2.
